Measurements as given in ChEMBL document CHEMBL1125524, “Adenosine A1 antagonists. 2. Structure-activity relationships on diuretic activities and protective effects against acute renal failure” (J Med Chem, 1992).

How the values were obtained:
Rattus norvegicus [1] = assay: Ratio of urinary excretion value (urinary volume) in treated rats to that in control rats, at a peroral dose of 25 mg/Kg; type: functional, Urine
Rattus norvegicus [2] = assay: Ratio of sodium ion/potassium ion concentration in treated rats to that in control rats, at a peroral dose of 25 mg/Kg; type: functional
Rattus norvegicus [3] = assay: Serum creatinine concentration measured after intraperitoneal administration of 10 mg/kg of compound to rats(vehicle 3.38+/-0.29); type: functional
Rattus norvegicus [4] = assay: Ratio of urinary excretion value (Na+ concentration) in treated rats to that in control rats, at a peroral dose of 25 mg/Kg; type: functional, Urine
Rattus norvegicus [5] = assay: Percent inhibition of serum creatinine by the compound given as ratio of Cr value in treated to vehicle treated ones after intraperitoneal administration of 10 mg/kg of compound to rats(vehicle 3.38+/-0.29); type: functional; settings: ip
Rattus norvegicus [6] = assay: Effect on urinary excretion potassium and sodium after oral administration of 25 mg/kg to rats(potassium and sodium excretion in control rat is 0.209+/-0.007); type: functional, Urine
Rattus norvegicus [7] = assay: Percent inhibition of Urea nitrogen by the compound given as ratio of UN value in treated to vehicle treated ones after intraperitoneal administration of 10 mg/kg of compound to rats(vehicle 114+/-8.7); type: functional; settings: ip
Rattus norvegicus [8] = assay: Oral diuretic activity was measured after oral administration of 25 mg/kg to rats(control volume is 1.02+/-0.02); type: functional, Urine
Adenosine A2 receptor [9] = biological target: T1, Adenosine A2 receptor (Rattus norvegicus, UniProt P29276+P30543)
Rattus norvegicus [10] = assay: Urea nitrogen concentration measured after intraperitoneal administration of 10 mg/kg of compound to rats(vehicle 114+/-8.7); type: functional
Adenosine A2 receptor [11] = biological target: T1, Adenosine A2 receptor; remark: listed apart in the source
Description: Binding affinity towards adenosine A2 receptor in rat striatal membranes using N-[3H]-ethyladenosin-5''-uronamide as radioligand

Adenosine receptor A1 = biological target: T2, Adenosine receptor A1 (Cavia porcellus, UniProt P47745)
T2 sequence (P47745 whole entry): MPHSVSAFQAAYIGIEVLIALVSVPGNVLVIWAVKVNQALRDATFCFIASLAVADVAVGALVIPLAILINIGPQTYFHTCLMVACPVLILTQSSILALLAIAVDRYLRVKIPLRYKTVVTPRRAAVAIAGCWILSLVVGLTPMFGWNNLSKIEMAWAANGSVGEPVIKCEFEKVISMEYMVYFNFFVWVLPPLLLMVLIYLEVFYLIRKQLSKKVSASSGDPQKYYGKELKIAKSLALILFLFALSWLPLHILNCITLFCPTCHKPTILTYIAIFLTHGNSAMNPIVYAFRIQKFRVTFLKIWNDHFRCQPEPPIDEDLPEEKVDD
Description: Binding affinity against adenosine A1 receptor in guinea pig forebrain membranes using N6-[3H]cyclohexyladenosine as radioligand

Rattus norvegicus [12] = assay: Percent inhibition of serum creatinine by the compound given as ratio of Cr value in treated to vehicle treated ones after intraperitoneal administration of 10 mg/kg of compound to rats(vehicle 3.93+/-0.45); type: functional; settings: ip
Rattus norvegicus [13] = assay: Serum creatinine concentration measured after intraperitoneal administration of 1 mg/kg of compound to rats(vehicle 3.62+/-0.52); type: functional
Rattus norvegicus [14] = assay: Ratio of urinary excretion value (Na+ concentration) in treated rats to that in control rats, at a peroral dose of 1.6 mg/Kg; type: functional, Urine
Rattus norvegicus [15] = assay: Ratio of urinary excretion value (Na+ concentration) in treated rats to that in control rats, at a peroral dose of 0.4 mg/Kg; type: functional, Urine
Rattus norvegicus [16] = assay: Ratio of urinary excretion value (urinary volume) in treated rats to that in control rats, at a peroral dose of 0.1 mg/Kg; type: functional, Urine
Rattus norvegicus [17] = assay: Oral diuretic activity was measured after oral administration of 0.4 mg/kg to rats(control volume is 1.15+/-0.17); type: functional, Urine
Rattus norvegicus [18] = assay: Ratio of sodium ion/potassium ion concentration in treated rats to that in control rats, at a peroral dose of 1.6 mg/Kg; type: functional
Rattus norvegicus [19] = assay: Oral diuretic activity was measured after oral administration of 0.1 mg/kg to rats(control volume is 1.15+/-0.12); type: functional, Urine
Rattus norvegicus [20] = assay: Effect on urinary excretion potassium and sodium after oral administration of 1.6 mg/kg to rats(potassium and sodium excretion in control rat is 0.147+/-0.015); type: functional, Urine
Rattus norvegicus [21] = assay: Ratio of urinary excretion value (Na+ concentration) in treated rats to that in control rats, at a peroral dose of 0.1 mg/Kg; type: functional, Urine
Rattus norvegicus [22] = assay: Ratio of urinary excretion value (urinary volume) in treated rats to that in control rats, at a peroral dose of 1.6 mg/Kg; type: functional, Urine
Rattus norvegicus [23] = assay: Serum creatinine concentration measured after intraperitoneal administration of 10 mg/kg of compound to rats(vehicle 3.93+/-0.45); type: functional
Rattus norvegicus [24] = assay: Percent inhibition of Urea nitrogen by the compound given as ratio of UN value in treated to vehicle treated ones after intraperitoneal administration of 10 mg/kg of compound to rats(vehicle 129.1+/-14.5); type: functional; settings: ip
Rattus norvegicus [25] = assay: Effect on urinary excretion potassium and sodium after oral administration of 0.4 mg/kg to rats(potassium and sodium excretion in control rat is 0.191+/-0.020); type: functional, Urine
Rattus norvegicus [26] = assay: Oral diuretic activity was measured after oral administration of 1.6 mg/kg to rats(control volume is 0.96+/-0.09); type: functional, Urine
Rattus norvegicus [27] = assay: Effect on urinary excretion potassium and sodium after oral administration of 0.1 mg/kg to rats(potassium and sodium excretion in control rat is 0.133+/-0.022); type: functional, Urine
Rattus norvegicus [28] = assay: Ratio of sodium ion/potassium ion concentration in treated rats to that in control rats, at a peroral dose of 0.4 mg/Kg; type: functional
Rattus norvegicus [29] = assay: Ratio of urinary excretion value (urinary volume) in treated rats to that in control rats, at a peroral dose of 0.4 mg/Kg; type: functional, Urine
Rattus norvegicus [30] = assay: Urea nitrogen concentration measured after intraperitoneal administration of 1 mg/kg of compound to rats(vehicle 105.2+/-14.9); type: functional
Rattus norvegicus [31] = assay: Ratio of sodium ion/potassium ion concentration in treated rats to that in control rats, at a peroral dose of 0.1 mg/Kg; type: functional
Rattus norvegicus [32] = assay: Percent inhibition of Urea nitrogen by the compound given as ratio of UN value in treated to vehicle treated ones after intraperitoneal administration of 1 mg/kg of compound to rats(vehicle 105.2+/-14.9); type: functional; settings: ip
Rattus norvegicus [33] = assay: Percent inhibition of serum creatinine by the compound given as ratio of Cr value in treated to vehicle treated ones after intraperitoneal administration of 1 mg/kg of compound to rats(vehicle 3.62+/-0.52); type: functional; settings: ip
Rattus norvegicus [34] = assay: Urea nitrogen concentration measured after intraperitoneal administration of 10 mg/kg of compound to rats(vehicle 129.1+/-14.5); type: functional

Nc1nc2ccc(Cl)cc2n2c(-c3ccccc3)nnc12
T/C (Rattus norvegicus [1]): 0.85
Na+/K+ (Rattus norvegicus [2]): 1.05
Cr (Rattus norvegicus [3]): 4.58 mg/dL
T/C (Rattus norvegicus [4]): 0.89
inhibition in vivo at 10 mg/kg (Rattus norvegicus [5]): -36%
Na (Rattus norvegicus [6]): 0.186 m equiv 6hr-1 100g-1
inhibition in vivo at 10 mg/kg (Rattus norvegicus [7]): -21%
Urine volume (Rattus norvegicus [8]): 0.87 ml 6hr-1 100g-1
Ki (Adenosine A2 receptor [9]): 5.1 nM
UN (Rattus norvegicus [10]): 137.8 mg/dL
Ki (Adenosine A2 receptor [11]): 21 nM
Ki (Adenosine receptor A1): 6900 nM

CCn1c(=O)c2nc(C(C3CC3)C3CC3)[nH]c2n(CC)c1=O
inhibition in vivo at 10 mg/kg (Rattus norvegicus [12]): 56%
Cr (Rattus norvegicus [13]): 3.24 mg/dL
T/C (Rattus norvegicus [14]): 2.12
T/C (Rattus norvegicus [15]): 2.27
T/C (Rattus norvegicus [16]): 0.72
Urine volume (Rattus norvegicus [17]): 2.11 ml 6hr-1 100g-1
Na+/K+ (Rattus norvegicus [18]): 1.71
Urine volume (Rattus norvegicus [19]): 0.83 ml 6hr-1 100g-1
Na (Rattus norvegicus [20]): 0.312 m equiv 6hr-1 100g-1
T/C (Rattus norvegicus [21]): 0.85
T/C (Rattus norvegicus [22]): 1.71
Cr (Rattus norvegicus [23]): 1.74 mg/dL
inhibition in vivo at 10 mg/kg (Rattus norvegicus [24]): 61%
Na (Rattus norvegicus [25]): 0.433 m equiv 6hr-1 100g-1
Urine volume (Rattus norvegicus [26]): 1.72 ml 6hr-1 100g-1
Na (Rattus norvegicus [27]): 0.113 m equiv 6hr-1 100g-1
Na+/K+ (Rattus norvegicus [28]): 1.63
Ki (Adenosine A2 receptor [9]): 690 nM
T/C (Rattus norvegicus [29]): 1.84
UN (Rattus norvegicus [30]): 98.5 mg/dL
Na+/K+ (Rattus norvegicus [31]): 1.37
inhibition in vivo at 1 mg/kg (Rattus norvegicus [32]): 6%
inhibition in vivo at 1 mg/kg (Rattus norvegicus [33]): 10%
UN (Rattus norvegicus [34]): 50.6 mg/dL
